Test results reported in paper PMC12490239, “Combining BET inhibition with SMAC mimetics restricts tumor growth and triggers immune surveillance in preclinical cancer models” (Cell Reports Medicine, 2025).

What was measured:
Assay in all cases: cells
Set-up in all cases: CellTiter-Glo 2.0 luminescence proliferation/viability assay, single agents, human tumour cell line panel
AGS = conditions: Homo sapiens, AGS, 96 h; single agent; read-out: IC50 SMACm
Experimental: (§1) The effect of BETi, SMACm alone or in combination cell viability was determined using a 96-h CellTiter-Glo2.0 proliferation assay. Cells were seeded in assay plates and placed at 37°C with 5% CO2 for twenty-four hours before treatment. Compounds were added in triplicate in gradients of increasing concentrations, in case of SMACm ranging between 4.5 nM and 10 μM and in case of BETi between 1.4 nM and 3 μM. DMSO served as control. Cell viability was measured by luminescence analysis using luminescence read on Envision plate readers (PerkinElmer). An additional set of colorectal cancer cell lines was assayed with technical duplicates and experimental triplicates. Cell viability was measured by luminescence analysis using luminescence read on Tecan Plate reader. The effects of drug combinations were analyzed using the Bliss Independence Model.[34] Synergy score was calculated by the average of 3 highest and 3 lowest BLISS Gaps between predicted and measured POC (Percentage of Control) values. To investigate the synergistic interaction between BI 894999 (hereafter, BETi) and BI 891065 (hereafter, SMACm), we evaluated the in vitro anti-tumor effect of the single agents or the combination in a large panel of 151 cancer cell lines of different tissue origin: CRC, gastric cancer, non-small cell lung cancer (NSCLC), and pancreatic carcinoma (Figures 1C–1F). As a mono-agent, SMACm was able to inhibit cell proliferation only in a limited number of tested cell lines (4%, Table S2). Most of the cell lines responded to inhibition by BETi, with sensitivity ranging from 10 to 100 nM (Figure 1C). Bliss Gap analysis, performed to analyze the effect of the BETi+SMACm combination on tumor cell growth (Figures 1D–1F), unveiled potent synergistic activity across the cell models tested (Figure 1E), independent of tumor type (Figure 1F).  Figure 1 The combinatorial effect of BI 894999 and BI 891065 across a panel of human tumor cell lines (A) Selectivity and potency profiles of BI 891065. Top left, structure of BI 891065. Top right, IC50 values for BI 891065 inhibition of cIAP1, cIAP2, and XIAP. Bottom, physicochemical properties of […]. (B) WES (Simple Western System) analysis of cIAP1, cIAP2, and XIAP levels upon treatment of HT-29 cells with indicated concentrations of BI 891065 for 6 h (C) IC50 values determined in cell proliferation assays (n = 151) individually for BETi BI 894999 and SMACm BI 891065. Each point represents a cell line tested. (D) Example of proliferation assay for synergy analysis in LoVo cell line; shown is combination plate map matrix and the cell growth inhibition (CGI) at the indicated concentrations; CGI values < 100%: tumor cell growth, CGI 100%: tumor cell stasis, and CGI > 100%: tumor cell killing. (E) Synergy scores across the tested panel of cell lines obtained using Bliss synergy analysis. (F) Violin plots showing the synergy scores for BETi and SMACm combination across indications. N is the number of cell lines tested in each indication group.

COCM1 = conditions: CoCM-1, 96 h; single agent; read-out: IC50 SMACm
Experimental: as §1

COLO60H = conditions: 96 h; single agent; read-out: IC50 SMACm
Experimental: as §1

GSU = conditions: 96 h; single agent; read-out: IC50 SMACm
Experimental: as §1

HCC1588 = conditions: HCC1588, 96 h; single agent; read-out: IC50 SMACm
Experimental: as §1

HCT-116 = conditions: Homo sapiens, HCT-116, 96 h; single agent; read-out: IC50 SMACm
Experimental: as §1

HT-29 = conditions: Homo sapiens, HT-29, 96 h; single agent; read-out: IC50 SMACm
Experimental: as §1

HUTU80 = conditions: Homo sapiens, HuTu80, 96 h; single agent; read-out: IC50 SMACm
Experimental: as §1

KM12L4 = conditions: KM 12L4, 96 h; single agent; read-out: IC50 SMACm
Experimental: as §1

LIM2550 = conditions: 96 h; single agent; read-out: IC50 SMACm
Experimental: as §1

LK-2 = conditions: Homo sapiens, LK-2, 96 h; single agent; read-out: IC50 SMACm
Experimental: as §1

NCI-H23 = conditions: Homo sapiens, NCI-H23, 96 h; single agent; read-out: IC50 SMACm
Experimental: as §1

NCI-H441 = conditions: Homo sapiens, NCI-H441, 96 h; single agent; read-out: IC50 SMACm
Experimental: as §1

SK-LU-1 = conditions: Homo sapiens, SK-LU-1, 96 h; single agent; read-out: IC50 SMACm
Experimental: as §1

SNU254 = conditions: 96 h; single agent; read-out: IC50 SMACm
Experimental: as §1

IC50 (AGS): 4.06 µM | IC50 (COLO60H): 4.37 µM | IC50 (HCC1588): 3.07 µM | IC50 (HCT-116): 4.06 µM | IC50 (HT-29): 4.24 µM | IC50 (NCI-H23): 3.42 µM | IC50 (NCI-H441): 6.13 µM | IC50 (SK-LU-1): 0.495 µM | IC50 (SNU254): 1.76 µM
Compound: CN[C@@H](C)C(=O)Nc1ccc(-c2c(-c3cccnc3OC)nc3cc(C)ccn23)c(C#Cc2ccc3c(C)nccc3c2)n1 [SMACm, BI 891065]
IC50 (COCM1): 7.58 µM | IC50 (GSU): 5.68 µM | IC50 (HUTU80): 1.36 µM | IC50 (KM12L4): 4.04 µM | IC50 (LIM2550): 2.08 µM | IC50 (LK-2): 4.15 µM
